Measured values from patent US10980824B2, “Pharmaceutical composition comprising quercetin-3-O-β-D-xylopyranoside for preventing or treating liver disease” (Hongcheon Institute of Medical Herb, priority 2016, dated 2021).

Key:
Type in all cases: in vivo, C57BL/6N mice
[1] = system: cytochrome P-450 2E1 (CYP2E1); assay: Expression of cytochrome P-450 2E1 by tissue staining; conditions: liver tissue staining; 1 mg/kg oral 10 days; EtOH+B vs EtOH-fed (FIG. 8)
Procedure: (§1) 8-week-old C57BL/6N mice were purchased from DAEHAN BIOLINK to be used for efficacy evaluation and quarantined and acclimated in a vivarium of HONGCHEON INSTITUTE OF MEDICAL HERB for 7 days (relative temperature: 23±2° C., relative humidity: 50±5%, and a 12 h light-dark cycle) prior to the start of experimentation. Among them, 18 male mice with no abnormal symptoms were selected and used.
(§2) During a liquid diet adaptation period, a control group was restrictedly fed with a Lieber-DeCarli'82 control liquid diet (F1259SP, Bio-serv), and an alcohol-fed group was restrictedly fed with a Lieber-DeCarli'82 ethanol liquid diet (F1258SP, Bio-serv) using a Liquid diet feeding tube (9019, Bio-serv), and the diets were replaced with new ones at a preset time between 3 P.M. and 5 P.M.
(§3) After 5 days of the liquid diet adaptation period, the mice were orally administered with 1 mg/kg of quercetin-3-O-β-D-xylopyranoside (test substance) for 10 days and fed with a 5% alcohol liquid diet. At 11th day, between 7 A.M. and 9 A.M., a group not fed with alcohol (hereinafter referred to as Pair-fed group) was orally administered with a 45% maltose dextrin solution, and a group fed with a 5% liquid diet (hereinafter referred to as EtOH-fed) and a group administered with a test substance (hereinafter referred to as EtOH+B group) were orally fed with 31.5% ethanol. […]

[2] = system: alcoholic steatosis-induced mice; assay: Fat accumulation in the liver (visual observation, H&E staining, Oil Red O staining); conditions: 1 mg/kg oral 10 days
Procedure: as §1, §2, §3

[3] = system: alcoholic steatosis-induced mice; assay: Concentrations of triglycerides in the blood and liver; conditions: 1 mg/kg oral 10 days; EtOH+B vs EtOH-fed (FIG. 7)
Procedure: as §1, §2, §3

[4] = system: Cd36 gene; assay: Real-time PCR of lipid metabolism gene expression in liver: Cd36; conditions: liver mRNA, relative to Pair-fed group; EtOH+B group, 1 mg/kg oral 10 days (FIG. 11)
Procedure: as §1
During a liquid diet adaptation period, a control group was restrictedly fed with a Lieber-DeCarli'82 control liquid diet (F1259SP, Bio-serv), and an alcohol-fed group was restrictedly fed with a Lieber-DeCarli'82 ethanol liquid diet (F1258SP, Bio-serv) using a Liquid diet feeding tube (9019, Bio-serv), and the diets were replaced with new ones at a preset time between 3 P.M. and 5 P.M. […]
Real-time quantitative PCR was performed using a 7500 Real-time Thermal Cycler (Applied Biosystems, USA) with SYBR Green (Applied Biosystems, USA) to measure gene expression. […]
PCR amplification steps as described below were repeated for up to 40 cycles. […] Values were recorded after extension at every cycle.
After completion of all cycles, melting curve analysis was carried out to verify specificity of the primers. The results were analyzed using the One step system software v2.1 provided by Applied Biosystems.

Compound: O=c1c(O[C@@H]2OC[C@@H](O)[C@H](O)[C@H]2O)c(-c2ccc(O)c(O)c2)oc2cc(O)cc(O)c12 [quercetin-3-O-β-D-xylopyranoside]
- CYP2E1 expression level [1]: far lower
- amount of lipid accumulated in the liver, dissection and visual observation ([2]; EtOH+B vs EtOH-fed (FIG. 5)): significantly reduced
- amount of lipid droplets in the liver tissue, H&E and Oil Red O staining ([2]; EtOH+B vs EtOH-fed (FIG. 6)): significantly reduced
- concentration of triglycerides in the blood [3]: significantly reduced
- concentration of triglycerides in the liver [3]: significantly reduced
- expression level of the Cd36 gene [4]: 0.98 times
